Source: patent publication US20240383904A1, “HETEROCYCLIC COMPOUNDS” (Hoffmann-La Roche Inc., priority 2021, published 2024)

The compounds below were run against T1, MAGL (Homo sapiens, UniProt Q99685) (assay: 2-AG assay: MAGL inhibitory activity by hydrolysis of 2-arachidonoylglycerol to arachidonic acid, followed by mass spectrometry). Details: 15 min preincubation, 30 min reaction at RT, 8 μM 2-arachidonoylglycerol.
T1 sequence (Q99685 1-303): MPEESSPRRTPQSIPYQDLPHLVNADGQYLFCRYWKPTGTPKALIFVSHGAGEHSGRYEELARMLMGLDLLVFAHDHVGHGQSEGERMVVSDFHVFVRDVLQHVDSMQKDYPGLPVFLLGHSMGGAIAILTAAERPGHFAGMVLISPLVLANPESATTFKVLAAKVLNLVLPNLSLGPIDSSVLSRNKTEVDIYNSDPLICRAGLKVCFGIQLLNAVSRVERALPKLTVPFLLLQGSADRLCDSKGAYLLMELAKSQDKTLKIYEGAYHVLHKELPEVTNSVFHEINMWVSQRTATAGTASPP
Type: biochemical

| IC50 | SMILES |
| --- | --- |
| 0.15 nM | O=C1NC2(CO1)CN(C(=O)N1CC3(CCC(Cc4ccc(Cl)cn4)CC3)C1)C2 [Example 97, 2-[7-[(5-chloro-2-pyridyl)methyl]-2-azaspiro[3.5]nonane-2-carbonyl]-7-oxa-2,5-diazaspiro[3.4]octan-6-one] |
| 0.45 nM | O=C1COCC2(CN(C(=O)N3CC4(CC(Cc5cc(F)cc(C(F)(F)F)c5)C4)C3)C2)N1 [Example 142] |
| 3.29 nM | O=C1NC2(CO1)CN(C(=O)N1CC3(CCC(Oc4cnc(C(F)(F)F)cn4)C3)C1)C2 (stereo not shown) [Example 71, 2-[6-[5-(trifluoromethyl)pyrazin-2-yl]oxy-2-azaspiro[3.4]octane-2-carbonyl]-7-oxa-2,5-diazaspiro[3.4]octan-6-one] |
| 1.69 nM | O=C1CCC2(CN(C(=O)N3CC4(CC(Cc5ncc(Cl)cc5F)C4)C3)C2)N1 [Example 175, 2-[6-[(5-chloro-3-fluoro-2-pyridyl)methyl]-2-azaspiro[3.3]heptane-2-carbonyl]-2,5-diazaspiro[3.4]octan-6-one] |
| 1800 nM | Cc1nc(C(F)(F)F)c(CN2CC3(C2)CN(C(=O)N2CC4(CCC(=O)N4)C2)C3)s1 [Example 343, 2-[6-[[2-methyl-4-(trifluoromethyl)thiazol-5-yl]methyl]-2,6-diazaspiro[3.4]heptane-2-carbonyl]-2,5-diazaspiro[3.4]octan-6-one] |
| 0.32 nM | CS(=O)(=O)c1ccc(CC2CC3(C2)CN(C(=O)N2CC4(COC(=O)N4)C2)C3)cc1C(F)(F)F [Example 44, 2-[6-[4-mesyl-3-(trifluoromethyl)benzyl]-2-azaspiro[3.3]heptane-2-carbonyl]-7-oxa-2,5-diazaspiro[3.4]octan-6-one] |
| 0.1 nM | N#Cc1ccc(CC2CC3(C2)CN(C(=O)N2CC4(COC(=O)N4)C2)C3)cc1C(F)(F)F [Example 353] |
| 0.37 nM | O=C1NC2(CO1)CN(C(=O)N1CC3(CC(Cc4nc(C(F)(F)F)cs4)C3)C1)C2 [Example 351, 2-[6-[[4-(trifluoromethyl)thiazol-2-yl]methyl]-2-azaspiro[3.3]heptane-2-carbonyl]-7-oxa-2,5-diazaspiro[3.4]octan-6-one] |
| 44.6 nM | O=C1CCC2(CN(C(=O)N3CC4(CCN(S(=O)(=O)c5ccc(C(F)(F)F)cc5F)CC4)C3)C2)N1 [Example 194, 2-[7-[2-fluoro-4-(trifluoromethyl)phenyl]sulfonyl-2,7-diazaspiro[3.5]nonane-2-carbonyl]-2,5-diazaspiro[3.4]octan-6-one] |
| 101 nM | N=S(=O)(c1ccc(OC2CC3(C2)CN(C(=O)N2CC4(CCC(=O)N4)C2)C3)cc1)C(F)(F)F (stereo not shown) [Example 335] |
| 31.2 nM | O=C1CCC2(CN(C(=O)N3CC4(CC(Cc5cnc(C(F)(F)F)nc5)C4)C3)C2)N1 [Example 11, 2-[6-[[2-(trifluoromethyl)pyrimi-din-5-y1]methyl]-2-azaspiro[3.3]heptane-2-carbonyl]-2,5-diazaspiro[3.4]octan-6-one] |
| 2.88 nM | Cn1nc(CC2CC3(C2)CN(C(=O)N2CC4(COCC(=O)N4)C2)C3)cc1C(F)(F)F [Example 367, 2-[6-[[1-methyl-5-(trifluoromethyl)pyrazol-3-yl]methyl]-2-azaspiro[3.3]heptane-2-carbonyl]-8-oxa-2,5-diazaspiro[3.5]nonan-6-one] |
| 3.04 nM | CS(=O)(=O)c1cc(CC2CC3(C2)CN(C(=O)N2CC4(CCC(=O)N4)C2)C3)ccc1C(F)(F)F [Example 40, 2-[6-[3-mesyl-4-(trifluoromethyl)benzyl]-2-azaspiro[3.3]heptane-2-carbonyl]-2,5-diazaspiro[3.4]octan-6-one] |
| 140 nM | O=C1CCC2(CN(C(=O)N3CC4(CCN(Cc5ccc(C(F)(F)F)cn5)C4)C3)C2)N1 [Example 150, 2-[7-[[5-(trifluoromethyl)-2-pyridyl]methyl]-2,7-diazaspiro[3.4]octane-2-carbonyl]-2,5-diazaspiro[3.4]octan-6-one] |
| 24 nM | O=C1NC2(CO1)CN(C(=O)N1CC3(CC(Nc4ccc(C(F)(F)F)nn4)C3)C1)C2 [Example 51, 2-[6-[[6-(trifluoromethyl)pyrida-zin-3-yl]amino]-2-azaspiro[3.3]heptane-2-carbonyl]-7-oxa-2,5-diazaspiro[3.4]octan-6-one] |
| 68.8 nM | N#Cc1ccc(OC2CC3(C2)CN(C(=O)N2CC4(COCC(=O)N4)C2)C3)cc1C(F)(F)F [Example 302, 4-[[2-(6-oxo-8-oxa-2,5-diazaspiro[3.5]nonane-2-carbonyl)-2-azaspiro[3.3]heptan-6-yl]oxy]-2-(trifluoromethyl)benzoni-trile] |
| 0.08 nM | O=C1NC2(CO1)CN(C(=O)N1CC3(CC(c4ccc(C(F)(F)F)cc4F)C3)C1)C2 [Example 107] |

| IC50 | SMILES |
| --- | --- |
| 19.1 nM | O=C1CCC2(CN(C(=O)N3CCC4(CC3)CN(Cc3ccc(C(F)(F)F)cc3F)C4)C2)N1 [Example 90, 2-[2-[2-fluoro-4-(trifluoromethyl)benzyl]-2,7-diazaspiro[3.5]nonane-7-carbonyl]-2,5-diazaspiro[3.4]octan-6-one] |
| 795 nM | N#Cc1cc(CC2CC3(C2)CN(C(=O)N2CC4(CCCC(=O)N4)C2)C3)cnc1C(F)(F)F [Example 272, 5-[[2-(6-oxo-2,5-diazaspiro[3.5]nonane-2-carbonyl)-2-azaspiro[3.3]heptan-6-yl]methyl]-2-(trifluoromethyl)pyridine-3-carbonitrile] |
| 0.35 nM | O=C1CCC2(CN(C(=O)N3CC4(CC(Cc5ncc(C(F)(F)F)cc5F)C4)C3)C2)N1 [Example 7, 2-[6-[[3-fluoro-5-(trifluoromethyl)-2-pyridyl]methyl]-2-azaspiro[3.3]heptane-2-carbonyl]-2,5-diazaspiro[3.4]octan-6-one] |
| 0.3 nM | CS(=O)(=O)c1cc(F)ccc1CC1CC2(C1)CN(C(=O)N1CC3(COC(=O)N3)C1)C2 [Example 15, 2-[6-(4-fluoro-2-mesyl-benzyl)-2-azaspiro[3.3]heptane-2-carbonyl]-7-oxa-2,5-diazaspiro[3.4]octan-6-one] |
| 0.43 nM | N#Cc1ccc(CC2CC3(C2)CN(C(=O)N2CC4(CCC(=O)N4)C2)C3)cc1C(F)(F)F [Example 219, 4-[[2-(6-oxo-2,5-diazaspiro[3.4]octane-2-carbonyl)-2-azaspiro[3.3]heptan-6-yl]methyl]-2-(trifluoromethyl)benzoni-trile] |
| 1.85 nM | O=C1NC2(CO1)CN(C(=O)N1CC3(CC(NC4(C(F)(F)F)CC4)C3)C1)C2 [Example 65, 2-[6-[[1-(trifluoromethyl)cyclopro-pyl]amino]-2-azaspiro[3.3]heptane-2-carbonyl]-7-oxa-2,5-diazaspiro[3.4]octan-6-one] |
| 23 nM | O=C1CCC2(CN(C(=O)N3CC4(CC(Cc5nsc(C(F)(F)F)n5)C4)C3)C2)N1 [Example 349, 2-[6-[[5-(trifluoromethyl)-1,2,4-thiadiazol-3-yl]methyl]-2-azaspiro[3.3]heptane-2-carbonyl]-2,5-diazaspiro[3.4]octan-6-one] |
| 171 nM | O=C1CCC2(CN(C(=O)N3CC4(CC(Cc5ccc6ncnn6c5)C4)C3)C2)N1 [Example 320, 2-[6-([1,2,4]triazolo[1,5-a]pyridin-6-ylmethyl)-2-azaspiro[3.3]heptane-2-carbonyl]-2,5-diazaspiro[3.4]octan-6-one] |
| 12.9 nM | O=C1NC2(CO1)CN(C(=O)N1CC3(CC(n4cnc(C5CC5)n4)C3)C1)C2 [Example 56, 2-[6-(3-cyclopropyl-1,2,4-triazol-1-yl)-2-azaspiro[3.3]heptane-2-carbonyl]-7-oxa-2,5-diazaspiro[3.4]octan-6-one] |
| 14.7 nM | O=C1NC2(CO1)CN(C(=O)N1CC3(C1)CN(S(=O)(=O)c1cccc(OC(F)(F)F)c1)C3)C2 [Example 192, 2-[2-[3-(trifluoromethoxy)phenyl]sulfonyl-2,6-diazaspiro[3.3]heptane-6-carbonyl]-7-oxa-2,5-diazaspiro[3.4]octan-6-one] |
| 123 nM | O=C1CCC2(CN(C(=O)N3CC4(CCN(Cc5ccc(C(F)(F)F)nc5)CC4)C3)C2)N1 [Example 148, 2-[7-[[6-(trifluoromethyl)-3-pyridyl]methyl]-2,7-diazaspiro[3.5]nonane-2-carbonyl]-2,5-diazaspiro[3.4]octan-6-one] |
| 0.47 nM | O=C1CCC2(CN(C(=O)N3CC4(CC(Cc5ccc(OC(F)(F)F)cn5)C4)C3)C2)N1 [Example 6, 2-[6-[[5-(trifluoromethoxy)-2-pyridyl]methyl]-2-azaspiro[3.3]heptane-2-carbonyl]-2,5-diazaspiro[3.4]octan-6-one] |
| 3.29 nM | N#Cc1cc(CC2CC3(C2)CN(C(=O)N2CC4(CNC(=O)N4)C2)C3)ccc1C(F)(F)F [Example 17, 5-[[2-(6-keto-2,5,7-triazaspiro[3.4]octane-2-carbonyl)-2-azaspiro[3.3]heptan-6-yl]methyl]-2-(trifluoromethyl)benzoni-trile] |
| 9.37 nM | O=C1CCC2(CN(C(=O)N3CC4(CC(Cn5cc(C(F)(F)F)cn5)C4)C3)C2)N1 [Example 54, 2-[6-[[4-(trifluoromethyl)pyrazol-1-y1]methyl]-2-azaspiro[3.3]heptane-2-carbonyl]-2,5-diazaspiro[3.4]octan-6-one] |
| 0.05 nM | O=C1NC2(CO1)CN(C(=O)N1CC3(CCC(Cc4ccc(OC(F)F)nc4)CC3)C1)C2 [Example 105, 2-[7-[[6-(difluoromethoxy)-3-pyridyl]methyl]-2-azaspiro[3.5]nonane-2-carbonyl]-7-oxa-2,5-diazaspiro[3.4]octan-6-one] |
| 16.7 nM | O=C1COCC2(CN(C(=O)N3CC4(CC(Cc5ccc(C(F)(F)F)nc5)C4)C3)C2)N1 [Example 174, 2-[6-[[6-(trifluoromethyl)-3-pyridyl]methyl]-2-azaspiro[3.3]heptane-2-carbonyl]-8-oxa-2,5-diazaspiro[3.5]nonan-6-one] |
| 23.1 nM | O=C1COCC2(CN(C(=O)N3CC4(CC(Cc5nc(C(F)(F)F)cs5)C4)C3)C2)N1 [Example 369] |
